Measured values taken from patent EP0189853A2, “1,6-Naphthyridin-2(1H)-ones having cardiotonic activity and preparation” (STERLING DRUG INC., priority 1985, dated 1986).

Tests used:
papillary muscle = test: isolated guinea pig atria and papillary muscle procedure: papillary muscle force; format: cell-based; settings: Cavia porcellus, papillary muscle force, read-out: % Change from Control PMF
Excerpt: (§1) Detailed descriptions of these test procedures appear in U.S. Patent No. 4,072,746, issued February 7, […].
(§2) Cardiotonic activity in said isolated cat or guinea pig atria and papillary muscle procedure, is indicated by a significant increase, that is, greater than 25% (cat) or 30% (g.pig) in papillary muscle force and a significant increase, that is, greater than 25% (cat) or 30% (g.pig) in right atrial force, with a lower percentage increase (about one-half or less than the percentage increase in right atrial force or papillary muscle force) in right atrial rate. Because of the lower control active tensions of guinea pig tissues, the percent change from control values of both rate and force responses is elevated slightly, i.e., 5%. Thus, whereas cardiotonic activity is ascertained with a papillary muscle force or right atrial force increase of 26% and greater in the cat test, corresponding activity in the guinea pig test is designated with a papillary muscle force (PMr) or right atrial force (RAF) increase of 31% or greater. Representative examples of the compounds of Formulas I and II were tested by said guinea pig atria and papillary muscle procedure with the following results: […]

anesthetized dog = anesthetized dog procedure: cardiac contractile force; format: in vivo; settings: administered intravenously
Description: as §1
When tested by said anesthetized dog procedure, the said cardiotonically active compounds of formulas I and II at doses of from about 0.030 to 3.0 mg/kg administered intravenously are found to cause significant increases, that is, 25% or greater, in cardiac contractile force or cardiac contractility with lower changes in heart rate and blood pressure. Representative examples of the invention were tested by this procedure and found to cause increases in contractile force as follows: […]

guinea pig atria = test: isolated guinea pig atria and papillary muscle procedure: right atrial force; format: cell-based; settings: Cavia porcellus, read-out: % Change from Control RAF
Excerpt: as §1, §2

## Cc1cn(-c2nccc3[nH]c(=O)ccc23)cn1 [Example 7, 5-(4-Methyl-1H-imidazol-1-yl)-1,6-naphthyridin-2(1H)-one]
Papillary muscle; dose 0.3 µg/ml
  activation at 0.3 µg/mL: 53%
Papillary muscle
  activation at 1 µg/mL: 66%
  activation at 3 µg/mL: 87%
Anesthetized dog; dose 0.030 mg/kg
  % Increase In Contractile Force: 34%
Anesthetized dog; dose 0.100 mg/kg
  % Increase In Contractile Force: 96%
Anesthetized dog; dose 0.300 mg/kg
  % Increase In Contractile Force: 124%
Guinea pig atria; dose 0.3 µg/ml
  activation at 0.3 µg/mL: 28%
Guinea pig atria
  activation at 1 µg/mL: 49%
  activation at 3 µg/mL: 88%

## O=c1ccc2c(Br)nccc2[nH]1 [Example 4, 5-bromo-1,6-naphthyridin-2(1H)-one]
Papillary muscle
  activation at 3 µg/mL: 73%
  activation at 10 µg/mL: 85%
  activation at 30 µg/mL: 110%
Anesthetized dog; dose 0.100 mg/kg
  % Increase In Contractile Force: 135%
Guinea pig atria
  activation at 3 µg/mL: 57%
  activation at 10 µg/mL: 49%
  activation at 30 µg/mL: 134%

## Cc1ncn(-c2nccc3[nH]c(=O)ccc23)n1 [Example 41, 5-(3-methyl-lH-1,2,4-triazole-1-yl)-1,6-naphthyridin-2(1H)-one]
Papillary muscle
  activation at 1 µg/mL: 36%
  activation at 3 µg/mL: 56%
  activation at 10 µg/mL: 124%
Guinea pig atria
  activation at 1 µg/mL: 29%
  activation at 3 µg/mL: 37%
  activation at 10 µg/mL: 67%

## Cc1cc2[nH]c(=O)ccc2c(Br)n1 [Example 46, 5-Bromo-7-methyl-1,6-naphthyridin-2(1H)-one]
Papillary muscle
  activation at 1 µg/mL: 44%
  activation at 3 µg/mL: 67%
  activation at 10 µg/mL: 114%
Guinea pig atria
  activation at 1 µg/mL: 41%
  activation at 3 µg/mL: 92%
  activation at 10 µg/mL: 59%

## O=c1ccc2c(-n3cnc(Br)c3)nccc2[nH]1 [Example 43, 5-(4-Bromo-1H-imidazol-1-yl)-1,6-naphthyridin-2(lH)-one]
Papillary muscle
  activation at 1 µg/mL: 47%
  activation at 3 µg/mL: 71%
  activation at 10 µg/mL: 128%
Guinea pig atria
  activation at 1 µg/mL: 35%
  activation at 3 µg/mL: 43%
  activation at 10 µg/mL: 56%

## O=c1ccc2c(-n3cncn3)nccc2[nH]1 [Example 11, 5-(lH-1,2,4-triazol-1-yl)-1,6-naphthyridin-2(1H)-one]
Papillary muscle
  activation at 3 µg/mL: 51%
  activation at 10 µg/mL: 76%
  activation at 30 µg/mL: 108%
Guinea pig atria
  activation at 3 µg/mL: 28%
  activation at 10 µg/mL: 31%
  activation at 30 µg/mL: 140%

## O=c1ccc2c(-n3ccnc3)nccc2[nH]1 [Example 6, 5-(lH-imidazol-1-yl)-1,6-naphthyridin-2(lH)-one]
Papillary muscle
  activation at 3 µg/mL: 55%
  activation at 10 µg/mL: 90%
  activation at 30 µg/mL: 96%
Guinea pig atria
  activation at 3 µg/mL: 70%
  activation at 10 µg/mL: 68%
  activation at 30 µg/mL: 142%

## Cc1ncn(-c2nccc3[nH]c(=O)ccc23)c1C [Example 12, 5-(4,5-dimethyl-1H-imidazol-1-yl)-1,6-naphthyridin-2(1H)-one]
Papillary muscle
  activation at 3 µg/mL: 13%
  activation at 10 µg/mL: 49%
  activation at 30 µg/mL: 92%
Anesthetized dog; dose 1.00 mg/kg
  % Increase In Contractile Force: 54%
Anesthetized dog; dose 3.00 mg/kg
  % Increase In Contractile Force: 136%
Guinea pig atria
  activation at 3 µg/mL: 7%
  activation at 10 µg/mL: 14%
  activation at 30 µg/mL: 50%

## O=c1ccc2c(-n3cnc(C(F)(F)F)c3)nccc2[nH]1 [Example 44, 5-[(4-(Trifluoromethyl)-lH-imidazol-1-yl)]-1,6-naphthyridin-2(lH)-one]
Papillary muscle
  activation at 10 µg/mL: 30%
  activation at 30 µg/mL: 31%
  activation at 100 µg/mL: 69%
Guinea pig atria
  activation at 10 µg/mL: 35%
  activation at 30 µg/mL: 36%
  activation at 100 µg/mL: 101%

## Cc1ncc([N+](=O)[O-])n1-c1nccc2[nH]c(=O)ccc12 [Example 9, 5-(2-methyl-5-nitro-1H-imidazol-1-yl)-1,6-naphthyridin-2(1H)-one]
Papillary muscle
  activation at 10 µg/mL: 24%
  activation at 30 µg/mL: 43%
  activation at 100 µg/mL: 103%
Guinea pig atria
  activation at 10 µg/mL: 15%
  activation at 30 µg/mL: 16%
  activation at 100 µg/mL: 116%

## O=c1ccc2c(-n3cnc(CO)c3)nccc2[nH]1 [Example 42, 5-[4-(Hydroxymethyl)-1H-imidazol-1-yl]-1,6-naphthyridin-2(lH)-one]
Papillary muscle
  activation at 1 µg/mL: 9%
  activation at 3 µg/mL: 48%
  activation at 10 µg/mL: 112%
Guinea pig atria
  activation at 1 µg/mL: -2%
  activation at 3 µg/mL: 8%
  activation at 10 µg/mL: 37%

## Cc1ccn(-c2nccc3[nH]c(=O)ccc23)n1 [Example 40, 5-(3-Methyl-1H-pyrazol-1-yl)-1,6-naphthyridin-2(lH)-one]
Papillary muscle
  activation at 3 µg/mL: 24%
  activation at 10 µg/mL: 64%
  activation at 30 µg/mL: 97%
Guinea pig atria
  activation at 3 µg/mL: 26%
  activation at 10 µg/mL: 89%
  activation at 30 µg/mL: 84%

## Cc1cn(-c2nc(C)cc3[nH]c(=O)ccc23)cn1 [Example 47, 7-Methyl-5-(4-methyl-1H-imidazol-1-yl)-1,6-naphthyridin-2(lH)-one]
Papillary muscle
  activation at 1 µg/mL: 46%
  activation at 3 µg/mL: 48%
  activation at 10 µg/mL: 164%
Anesthetized dog; dose 0.100 mg/kg
  % Increase In Contractile Force: 71%
Anesthetized dog; dose 0.300 mg/kg
  % Increase In Contractile Force: 125%
Anesthetized dog; dose 1.00 mg/kg
  % Increase In Contractile Force: 183%
Guinea pig atria
  activation at 1 µg/mL: 37%
  activation at 3 µg/mL: 46%
  activation at 10 µg/mL: 158%

## O=c1ccc2c(-n3cccn3)nccc2[nH]1 [Example 10, 5-(1H-pyrazol-1-yl)-1,6-naphthyridin-2(1H)-one]
Papillary muscle
  activation at 10 µg/mL: 43%
  activation at 30 µg/mL: 121%
  activation at 100 µg/mL: 203%
Guinea pig atria
  activation at 10 µg/mL: 38%
  activation at 30 µg/mL: 102%
  activation at 100 µg/mL: 168%

## Cc1nccn1-c1nccc2[nH]c(=O)ccc12 [Example 8, 5-(2-Methyl-1H-imidazol-1-yl)-1,6-naphthyridin-2(lH)-one]
Papillary muscle
  activation at 10 µg/mL: 34%
  activation at 30 µg/mL: 69%
  activation at 100 µg/mL: 100%
Guinea pig atria
  activation at 10 µg/mL: 39%
  activation at 30 µg/mL: 117%
  activation at 100 µg/mL: 221%

## O=c1ccc2c(-n3cnc([N+](=O)[O-])c3)nccc2[nH]1 [Example 48, 5-(4-nitro-1H-imidazol-1-yl)-1,6-naphthyridin-2(1H)-one]
Papillary muscle
  activation at 10 µg/mL: 37%
  activation at 30 µg/mL: 71%
  activation at 100 µg/mL: 107%
Guinea pig atria
  activation at 10 µg/mL: 18%
  activation at 30 µg/mL: 42%
  activation at 100 µg/mL: 170%

## O=c1ccc2c(-n3cnc(-c4ccccc4)c3)nccc2[nH]1 [Example 13, 5-(4-phenyl-lH-imidazol-1-yl)-1,6-naphthyridin-2(1H)-one]
Papillary muscle
  activation at 10 µg/mL: 25%
  activation at 30 µg/mL: 34%
  activation at 100 µg/mL: 36%
Anesthetized dog; dose 1.00 mg/kg
  % Increase In Contractile Force: 40%
Anesthetized dog; dose 3.00 mg/kg
  % Increase In Contractile Force: 87%
Guinea pig atria
  activation at 10 µg/mL: 33%
  activation at 30 µg/mL: 24%
  activation at 100 µg/mL: 1%
